Measurements taken from article PMC9821843, “Powerful Potential of Polyfluoroalkyl-Containing 4-Arylhydrazinylidenepyrazol-3-ones for Pharmaceuticals” (Molecules, 2022).
Values after ≈ are worked out from the molar mass of the structure shown. Where two headings read alike, the source gives them in different places.

Experiments:
[1] = tested on: Trichophyton rubrum RCPF F 1408; experiment: Antifungal susceptibility testing, T. rubrum; settings: Trichophyton rubrum, RCPFF1408, read-out: MIC for fungi strains inhibition, T. rubrum
Description: (§2) The solvent was DMSO. […] In each test, a growth control and a sterility control were used.

[2] = tested on: Candida albicans RCPF Y 401/NCTC 885/653; experiment: Antifungal susceptibility testing, C. albicans; settings: NCTC885, read-out: MIC for fungi strains inhibition, C. albicans
Description: as §2

[3] = tested on: Microsporum canis RCPF F 1643/1585; experiment: Antifungal susceptibility testing, M. canis; settings: Microsporum canis, RCPFF1643/1585, read-out: MIC for fungi strains inhibition, M. canis
Description: as §2

[4] = tested on: Epidermophyton floccosum RCPF F 1659/17; experiment: Antifungal susceptibility testing, E. floccosum; settings: Epidermophyton floccosum, RCPFF1659/17, read-out: MIC for fungi strains inhibition, E. floccosum
Description: as §2

Sprague-Dawley (SD) rats = experiment: Hot plate test (analgesic activity); assay type: in vivo; settings: ip, dose 15 mg/kg; for change in vivo at 15 mg/kg: Rattus norvegicus, hot plate test, rats, n.a. = inactive (p > 0.05)
Protocol: The hot plate test was conducted according to established guidelines on Sprague-Dawley (SD) rats (3 male and 3 female rodents per group). The compounds were intraperitoneally administered in the form of suspensions in 1% starch mucilage. Negative control group animals received vehicle only (1% starch mucilage). Diclofenac sodium (Hemofarm, Vršac, Serbia, 10 mg/kg in 1% starch mucilage solution) or metamizole sodium (PAO Biosynthesis, Sun Pharma, Penza, Russia, 15 mg/kg in 1% starch mucilage solution) were used as reference drugs. One and two hours after the injection, rats were placed on an electrically heated to 50 °C plate (Hot plate 60,200 series, TSE-systems, Bad Homburg, Germany) in a Plexiglas cylindrical restrainer (19 cm diameter × 30 cm). The nociceptive response time was measured by observing the appearance of rats’ movements (e.g., jumping, hind paw licking or shaking). Maximal cutoff time was set as 30 s regardless of the response in order to preclude skin damage.
Differences between the values of the latency period for the treated (experimental) and control groups of animals were considered significant at p ≤ 0.05.

[5] = tested on: Neisseria gonorrhoeae ATCC 49226/NCTC 12700; experiment: Antibacterial activity against Neisseria gonorrhoeae; assay type: cell-based; settings: read-out: MIC against Neisseria gonorrhoeae
Protocol: Antibacterial activity testing was done on the growth medium Difco GC medium base (Becton Dickinson, Franklin Lakes, NJ, USA) supplemented with 1% IsoVitaleX. Dilutions of chemical compounds were carried out in the range of 250–0.12 μg/mL in 24 well sterile plates (Sarstedt, Germany). Daily cultures of control bacterial strains were identified on a VITEK MS analyzer (BioMérieux, Marcy-l’Étoile, France) by MALDI-TOF mass spectrometry. The inoculation dose of N. gonorrhoeae inoculum was 10^5 CFU/mL.

[6] = target: T1, equine serum butyrylcholinesterase (BChE, EC 3.1.1.8) (Equus caballus, UniProt P81908); experiment: Inhibition of equine serum butyrylcholinesterase (Ellman assay); assay type: biochemical; settings: read-out: Inhibition % at 20 µM, Equine BChE
T1 construct: equine serum butyrylcholinesterase (BChE, EC 3.1.1.8); purchased Sigma-Aldrich (Saint Louis, MO, USA); host or cells: equine serum
T1 sequence (P81908 whole entry): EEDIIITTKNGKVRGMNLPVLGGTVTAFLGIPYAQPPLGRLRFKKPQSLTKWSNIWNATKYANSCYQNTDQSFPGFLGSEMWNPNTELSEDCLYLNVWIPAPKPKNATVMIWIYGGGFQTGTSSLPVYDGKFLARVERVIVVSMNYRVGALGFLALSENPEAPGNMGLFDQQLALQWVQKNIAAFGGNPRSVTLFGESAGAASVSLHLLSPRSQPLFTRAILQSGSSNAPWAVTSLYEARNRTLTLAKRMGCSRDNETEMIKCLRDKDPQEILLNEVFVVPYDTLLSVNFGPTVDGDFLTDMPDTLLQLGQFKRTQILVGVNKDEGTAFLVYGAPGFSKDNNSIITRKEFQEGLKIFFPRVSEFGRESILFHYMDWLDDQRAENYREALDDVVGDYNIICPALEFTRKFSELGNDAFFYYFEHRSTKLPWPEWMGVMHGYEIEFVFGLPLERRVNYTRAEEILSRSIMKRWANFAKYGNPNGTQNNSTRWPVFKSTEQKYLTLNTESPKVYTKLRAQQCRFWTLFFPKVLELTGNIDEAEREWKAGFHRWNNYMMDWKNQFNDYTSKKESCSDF
Description: (§1) The following enzymes were purchased from Sigma-Aldrich (Saint Louis, MO, USA): porcine liver carboxylesterase (CES, EC 3.1.1.1), human erythrocyte acetylcholinesterase (AChE, EC 3.1.1.7) and equine serum butyrylcholinesterase (BChE, EC 3.1.1.8). Substrates for CES, AChE and BChE were 4-nitrophenyl acetate (4-NPA), acetylthiocholine iodide (ATCh) and butyrylthiocholine iodide (BTCh), respectively, and the colorimetric reagent for the AChE and BChE assays was 5,5’-dithio-bis-(2-nitrobenzoic acid) (DTNB) (Sigma-Aldrich). All the kinetic experiments were performed under standard conditions, according to the protocol of IPAC RAS for a reversible inhibitors study.
Final concentrations of reactants were 0.33 mM DTNB, 0.02 unit/mL of AChE or BChE and 1 mM of substrate (ATCh or BTCh, respectively). Reagent blanks consisted of reaction mixtures without enzyme to assess non-enzymatic hydrolysis of substrates.
Test compounds were dissolved in DMSO. Reaction mixtures contained a final DMSO concentration of 2% (v/v). […] Substrate was then added and residual enzyme activity relative to an inhibitor-free control was measured using a Bio-Rad Benchmark Plus microplate reader (Marnes-la-Coquette, France).
Measurements were performed in a Bio-Rad Benchmark Plus microplate reader. Each experiment was performed in triplicate. Plots, linear regressions and values of IC50, were determined using Origin 6.1 for Windows, OriginLab (Northampton, MA, USA).

[7] = ABTS radical cation scavenging activity assay; parameters: key to ABTS•+-scavenging activity, TEAC (trolox equivalent antioxidant capacity): TEAC = ratio of compound slope to Trolox slope vs ABTS absorbance; settings: mean ± SEM; n.a. = inactive
Protocol: Radical scavenging activity of the compounds was evaluated by the ABTS radical cation (ABTS^•+) scavenging assay by the ability of the compounds to decolorize the ABTS^•+ solution [112] with some modifications. Trolox was used as a reference standard. Edaravone was used as the comparison compound. All tested compounds and standards were dissolved in DMSO. ABTS (2,2′-azinobis-(3-ethylbenzothiazoline-6-sulfonic acid)) was purchased from Tokyo Chemical Industry Co. Ltd. (Tokyo, Japan). Potassium persulfate (di-potassium peroxdisulfate), Trolox® (6-hydroxy-2,5,7,8-tetramethychroman-2-carboxylic acid), ascorbic acid, DMSO and HPLC-grade ethanol were obtained from Sigma-Aldrich Chemical Co. Aqueous solutions were prepared using deionized water.
The solution of ABTS^•+ was produced by mixing 7 mM ABTS aqueous solution with 2.45 mM potassium persulfate aqueous solution in equal quantities and allowing them to react for 12–16 h at room temperature in the dark. Radical scavenging capacity of the compounds was analyzed by mixing 10 μL of compound with 240 μL of ABTS^•+ working solution in ethanol (100 μM final concentration), and after 1 h of incubation at 30 °C the decrease in absorbance was measured spectrophotometrically at 734 nm using a Bio-Rad xMark microplate UV/VIS spectrophotometer (Bio-Rad, Hercules, CA, USA). The compounds were tested in the concentration range of 5 × 10^–7–4 × 10^–4 M. Ethanol blanks were run in each assay. Values were obtained from five replicates of each sample and three independent experiments.
Antioxidant activity was calculated as Trolox equivalent antioxidant capacity (TEAC values), consisting of the ratio between the slopes obtained from the linear correlation for concentrations of the tested compounds and Trolox with absorbance of ABTS radical. For the test compounds, which reduce ABTS^•+ absorbance by more than 60% at 100 µM, we also determined IC50 values as 50% reduction of the ABTS radical. The calculations were carried out using Origin 6.1 for Windows. Results were presented as mean ± SEM, calculated using GraphPad Prism version 6.05 for Windows, GraphPad Software.

[8] = target: T2, human erythrocyte acetylcholinesterase (AChE, EC 3.1.1.7) (Homo sapiens, UniProt P22303); experiment: Inhibition of human erythrocyte acetylcholinesterase (Ellman assay); assay type: biochemical; settings: read-out: Inhibition % at 20 µM, Human AChE
T2 construct: human erythrocyte acetylcholinesterase (AChE, EC 3.1.1.7); purchased Sigma-Aldrich (Saint Louis, MO, USA); host or cells: human erythrocytes
T2 sequence (P22303 32-617 isoform P22303-2 limits assumed): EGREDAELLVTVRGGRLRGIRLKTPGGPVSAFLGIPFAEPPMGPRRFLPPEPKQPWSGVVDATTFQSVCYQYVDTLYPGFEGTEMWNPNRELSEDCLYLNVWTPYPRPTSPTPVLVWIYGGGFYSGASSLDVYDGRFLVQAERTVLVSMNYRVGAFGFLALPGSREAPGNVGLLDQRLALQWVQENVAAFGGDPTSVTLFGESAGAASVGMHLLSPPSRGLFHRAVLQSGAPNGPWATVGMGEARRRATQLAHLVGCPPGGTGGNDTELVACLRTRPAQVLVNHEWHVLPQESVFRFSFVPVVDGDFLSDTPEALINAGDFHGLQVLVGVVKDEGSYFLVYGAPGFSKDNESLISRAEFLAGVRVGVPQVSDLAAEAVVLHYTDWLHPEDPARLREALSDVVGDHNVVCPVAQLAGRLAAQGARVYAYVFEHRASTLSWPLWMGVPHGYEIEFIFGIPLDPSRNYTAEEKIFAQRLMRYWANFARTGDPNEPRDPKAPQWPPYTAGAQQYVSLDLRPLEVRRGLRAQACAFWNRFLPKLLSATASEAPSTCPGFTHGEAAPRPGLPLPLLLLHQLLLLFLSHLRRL
Description: as §1
Reagent blanks consisted of reaction mixtures without enzyme to assess non-enzymatic hydrolysis of substrates.
Test compounds were dissolved in DMSO. Reaction mixtures contained a final DMSO concentration of 2% (v/v). […] Measurements were performed in a Bio-Rad Benchmark Plus microplate reader. Each experiment was performed in triplicate. Plots, linear regressions and values of IC50, were determined using Origin 6.1 for Windows, OriginLab (Northampton, MA, USA).

[9] = Acute toxicity evaluation in mice (ip); settings: CD-1, mouse, in vivo, 300 mg/kg
Protocol: The toxicity evaluation was performed on CD-1 mice. […] The tested compounds in 1% starch mucilage were injected intraperitoneally into three mice. Then, animals were observed during 14 days, the number of deaths was counted and % of viability calculated.

[10] = Oxygen radical absorbance capacity (ORAC-FL) assay; settings: n.a. = inactive; i.t.s. = interferes with test system
Description: We evaluated the primary antioxidant activity of synthesized 4-AHPs 5–9 in comparison with their non-fluorinated analogues 9a,b using three standard tests: ABTS, FRAP (ferric reducing antioxidant power) and ORAC (oxygen radical absorbance capacity) assays. The ABTS assay evaluates the binding of a model ABTS radical cation (ABTS^•+), which is realized by the mechanism of single electron transfer (SET) and/or hydrogen atom transfer (HAT). The FRAP assay measures the ability of compounds to reduce the ferric 2,4,6-tripyridyl-s-triazine complex [Fe(TPTZ)2]^3+ to [Fe(TPTZ)2]^2+, which occurs exclusively by the SET mechanism. The ORAC-FL assay measures the oxidative degradation of the fluorescent molecule (FL – fluorescein) after being mixed with a free peroxyl radical generator such as 2,2′-azobis-(2-methylpropionamidine) dihydrochloride (AAPH) in the presence of antioxidant (tested compound). The ORAC-FL test describes the antioxidants’ ability to yield the hydrogen atom and, consequently, it is a HAT-based assay. Trolox was used in all tests as a reference antioxidant: the antioxidant activity of the test compounds was referred to the activity of Trolox. The well-known antioxidant Edaravone was also used for comparison.
The ORAC assay was performed according to the known method, with minor variations and described by us recently.

[11] = target: porcine liver carboxylesterase (CES, EC 3.1.1.1) (Sus scrofa, UniProt Q29550); experiment: Inhibition of porcine liver carboxylesterase (4-NPA colorimetric assay); assay type: biochemical; settings: mean ± SEM, n = 3
Sequence of porcine liver carboxylesterase (CES, EC 3.1.1.1) (Q29550 19-566): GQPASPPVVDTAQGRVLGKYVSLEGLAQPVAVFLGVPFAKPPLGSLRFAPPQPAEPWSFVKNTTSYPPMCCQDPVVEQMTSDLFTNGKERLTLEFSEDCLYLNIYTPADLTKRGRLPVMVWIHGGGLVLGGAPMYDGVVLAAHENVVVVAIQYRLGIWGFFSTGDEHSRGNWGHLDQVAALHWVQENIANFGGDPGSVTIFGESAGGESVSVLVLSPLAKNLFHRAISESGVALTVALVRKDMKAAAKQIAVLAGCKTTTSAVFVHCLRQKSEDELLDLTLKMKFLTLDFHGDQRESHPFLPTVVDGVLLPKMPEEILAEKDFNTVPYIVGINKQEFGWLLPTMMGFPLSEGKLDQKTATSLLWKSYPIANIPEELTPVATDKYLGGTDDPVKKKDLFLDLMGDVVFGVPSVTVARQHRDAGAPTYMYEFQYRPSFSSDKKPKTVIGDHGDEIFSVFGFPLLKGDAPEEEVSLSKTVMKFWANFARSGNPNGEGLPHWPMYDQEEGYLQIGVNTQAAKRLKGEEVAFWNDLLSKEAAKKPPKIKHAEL
Description: as §1
The CES (porcine liver) activity was assessed colorimetrically in 0.1 M K/Na phosphate buffer pH 8.0, 25 °C, by measuring the absorbance of 4-nitrophenol at 405 nm. Final enzyme and substrate (4-NPA) concentrations were 0.02 unit/mL and 1 mM, respectively. Reagent blanks included all constituents except enzyme.
Test compounds were dissolved in DMSO. Reaction mixtures contained a final DMSO concentration of 2% (v/v). Enzyme inhibition was first assessed at a single concentration of 20 µM for each compound after a 5 min incubation at 25 °C in three separate experiments. […] Substrate was then added and residual enzyme activity relative to an inhibitor-free control was measured using a Bio-Rad Benchmark Plus microplate reader (Marnes-la-Coquette, France).
Measurements were performed in a Bio-Rad Benchmark Plus microplate reader. Each experiment was performed in triplicate. Plots, linear regressions and values of IC50, were determined using Origin 6.1 for Windows, OriginLab (Northampton, MA, USA). Results were calculated using GraphPad Prism version 6.05 for Windows, GraphPad Software (La Jolla, CA, USA) and presented as mean ± SEM.

[12] = 1 h, read-out: Latent Period Prolongation, % 1 h
[13] = 2 h, read-out: Latent Period Prolongation, % 2 h

O=C1/C(=N\Nc2ccc(F)cc2)C(C(F)(F)F)=NN1c1ccccc1 [5h, (4Z)-4-[2-(4-Fluorophenyl)hydrazinylidene]-2-phenyl-5-(trifluoromethyl)-2,4-dihydro-3H-pyrazol-3-one]
MIC [1]: > 200 µg/mL | MIC [2]: > 200 µg/mL | MIC [3]: > 200 µg/mL | MIC [4]: > 200 µg/mL | change in vivo at 15 mg/kg (Sprague-Dawley (SD) rats; [12]): 66% | change in vivo at 15 mg/kg (Sprague-Dawley (SD) rats; [13]): 67% | MIC [5]: 125 µg/mL (≈ 357 µM) | inhibition at 20 µM [6]: 3.2 ± 0.6% | ABTS•+-scavenging activity, TEAC (trolox equivalent antioxidant capacity) [7]: 0.05 ± 0.004 | inhibition at 20 µM [8]: 7 ± 1.2% | survival at 14 days [9]: 100%

O=C1/C(=N\Nc2ccc(S(=O)(=O)O)cc2)C(C(F)(F)F)=NN1c1ccccc1 [5o, (4Z)-4-(2-[4-(Sulfo)phenyl]hydrazinylidene)-2-phenyl-5-(trifluoromethyl)-2,4-dihydro-3H-pyrazol-3-one]
change in vivo at 15 mg/kg (Sprague-Dawley (SD) rats; [12]): 109% | change in vivo at 15 mg/kg (Sprague-Dawley (SD) rats; [13]): 54% | MIC [5]: 62.5 µg/mL (≈ 152 µM) | inhibition at 20 µM [6]: 7.4 ± 1.2% | ORAC-FL (TE, antioxidant activity in Trolox equivalents) [10]: i.t.s. | inhibition at 20 µM ([11]; 20 µM, n.a. = inactive at 20 µM): 5.2 ± 1% | survival at 14 days [9]: 100%

O=C1/C(=N\Nc2c(Cl)cccc2Cl)C(C(F)(F)C(F)(F)F)=NN1c1ccccc1 [6e, (4Z)-4-[2-(2,6-Dichlorophenyl)hydrazinylidene]-5-(pentafluoroethyl)-2-phenyl-2,4-dihydro-3H-pyrazol-3-one]
MIC [1]: > 200 µg/mL | MIC [2]: > 200 µg/mL | MIC [3]: > 200 µg/mL | MIC [4]: 200 µg/mL (≈ 443 µM) | analgesic activity in the hot plate test (Sprague-Dawley (SD) rats; SD rats, 1 and 2 h): inactive | MIC [5]: 62.5 µg/mL (≈ 139 µM) | inhibition at 20 µM [6]: 6.2 ± 1.2% | inhibition at 20 µM [8]: 6 ± 1% | survival at 14 days [9]: 100%

CCOC(=O)c1ccc(N/N=C2\C(=O)N(c3ccccc3)N=C2C(F)(F)C(F)(F)F)cc1 [6g, (4Z)-4-[2-(4-Ethoxycarbonylphenyl)hydrazinylidene]-5-(pentafluoroethyl)-2-phenyl-2,4-dihydro-3H-pyrazol-3-one]
MIC [1]: > 200 µg/mL | MIC [2]: > 200 µg/mL | MIC [3]: > 200 µg/mL | MIC [4]: > 200 µg/mL | change in vivo at 15 mg/kg (Sprague-Dawley (SD) rats; [12]): 67% | change in vivo at 15 mg/kg (Sprague-Dawley (SD) rats; [13]): 73% | MIC [5]: 15.6 µg/mL (≈ 34.3 µM) | inhibition at 20 µM [6]: 4.2 ± 0.8% | inhibition at 20 µM [8]: 6.2 ± 0.9% | survival at 14 days [9]: 100%

O=[N+]([O-])c1ccc(OP(=O)(O)Oc2ccc([N+](=O)[O-])cc2)cc1 [BNPP, reference compound]
IC50 ([11]; read-out: Inhibitory Activity IC50 ± SEM, Porcine CES): 1800 ± 110 nM
